The text below walks through data of PMC9319560 (Viruses, 2022).

Data set [1] relates to normal human epidermal keratinocytes (NHEK). The data set can be described thus: LDH release assay on NHEK. The following applies: concentrations up to 10 µg/mL (1 to 20 µg/mL tested), 48 h per b34/b35 (24 h per b9), compared with non-treated cells, mean of at least 3 independent experiments. Format: cell-based. (Release of lactate dehydrogenase indicates damage to the cell membrane.)

The test system of data set [2] is West Nile virus (WNV). The following applies: for reduction in the viral titer (factor): WNV inoculum 10^5.27 TCID50/mL pre-incubated 1 h at 37 °C (legend: 2 h), residual titer on Vero cells, versus WNV incubated alone, 5 independent experiments.
The test system of another data set is viral envelope. The following applies: previous studies; cited from earlier work.
In data set [3] the test system is normal human epidermal keratinocytes (NHEK). Description: XTT cell viability assay on NHEK. Format: cell-based. The following applies: concentrations up to 10 µg/mL (1 to 20 µg/mL tested), 48 h incubation, compared with non-treated cells, mean of at least 3 independent experiments. (Tetrazolium assays rely on reduction of a dye to a coloured formazan, in cell work by metabolically active cells.)

A further data set relates to viperin (RSAD2). The data set can be described thus: Viperin. The format is cell-based, human. As to conditions: NHEK, WNV MOI 0.1, 48 h, immunofluorescence, 3 independent experiments.
Data set [4] has as its system pro-inflammatory cytokine release. The following applies: cell-specific and concentration-dependent; cell supernatant; cited from earlier work.
The subject of data set [5] is human primary keratinocytes (NHEK) infected by WNV. Description: Inflammatory marker mRNA expression in NHEK infected with WNV, RT-qPCR. Format: cell-based. The following applies: WNV MOI 0.1, 24 h, 1 or 10 µg/mL peptide, versus WNV alone, similar trend, fold changes less marked, 5 independent experiments.
Data set [6] concerns West Nile virus (WNV). The data set can be described thus: WNV RNA quantification by RT-qPCR in infected human primary keratinocytes. The format is cell-based. As to conditions: NHEK, WNV MOI 0.1, 24 h; for viral load in the cell monolayers: peptide 1 or 10 µg/mL added 1 h before infection, versus untreated; for effect on WNV replication in human primary keratinocytes: peptide 1 or 10 µg/mL, viral load in monolayer and supernatant by RT-qPCR. For orientation: In qPCR the cycle at which signal appears reflects the starting amount.

For data set [7], the system named is human primary keratinocytes (NHEK). The format is cell-based. The following applies: 3 h, RT-qPCR; for pro-inflammatory effects of the peptide alone (mRNA of inflammatory markers): peptide alone 0.1, 1 and 10 µg/mL, 6 independent experiments (Figure S1).
The next data set relates to DENV. As to conditions: pretreatment by 30 µg/mL of peptide; cited from earlier work.
The test system of data set [8] is human immunodeficiency virus. The following applies: concentration-dependent antiviral effect against human immunodeficiency virus; cited from earlier work.
In data set [9] the test system is human primary keratinocytes (NHEK). Description: Inflammatory marker mRNA expression in NHEK stimulated with poly(I:C), RT-qPCR. The following applies: NHEK stimulated with 0.1 µg/mL poly(I:C) alone, 3 h. Format: cell-based.
Where [10] appears, read: 1 µg/mL peptide, versus WNV alone, p < 0.05.
The mark [11] stands for this setting: whatever the concentration of the peptide (1 or 10 µg/mL).
Setting [12] is: RT-qPCR, 5 independent experiments.

“Also recorded” adds a separate entry of the source. Where two headings read alike, the source gives them in different places. No end group written: not given here.

Consider LL-37, for which the “keratinocyte viability (LDH release)” value in [1] was “greater than or equal to 90%”. For the same substance, the “reduction in the viral titer (factor)” value with West Nile virus (WNV) [2] (1 µg/mL peptide) was 14; in the data set on West Nile virus (WNV) [2] (10 µg/mL peptide) it was 95. Also, the “reduction in the viral infectious titer” value in the data set on West Nile virus (WNV) [2] (WNV strain incubated with peptide, concentration not given) came out at 2 log10. The “concentration from which degradation of the viral envelope was observed” value in the data set with viral envelope was at least 10 µg/mL. Further, the “keratinocyte viability (XTT)” value in data set [3] was “greater than or equal to 90%”. Besides, the RSAD2 protein expression entry in the data set on viperin (RSAD2) (setting [10]) is “significantly increased”; with viperin (RSAD2) (setting [11]), “enhanced”. Besides, the “concentration from which decreased pro-inflammatory cytokine release was seen” value in [4] was at least 25 µg/mL. In addition, the “expression of ISGs and inflammatory markers (mRNA) during WNV infection” value in data set [5] is on record as “not significant”. Besides, in the data set on West Nile virus (WNV) [6] (10 µg/mL peptide added 1 h before infection, RT-qPCR, versus untreated cells, 5 independent experiments, p < 0.05), the “decrease of viral RNA in the cell supernatant” value is reported as 5.5 fold. Further, the “viral load in the cell monolayers” value with West Nile virus (WNV) [6] (setting [12]) is reported as “No significant difference”. In addition, in the data set with West Nile virus (WNV) [6], the “effect on WNV replication in human primary keratinocytes” value is “inhibits WNV replication”. The “pro-inflammatory effects of the peptide alone (mRNA of inflammatory markers)” value in [7] is reported as “no significant pro-inflammatory effects”.
As for “hBD-3 (GIINTLQKYYCRVRGGRCAVLSCLPKEEQIGKCSTRGRKCCRRKK; ends and bridges not checked; cysteine pairing not given here; UniProt P81534 23-67, looked up) [type 3 human β-defensin, skin antimicrobial peptide; purchased from PeproTech]”, the “keratinocyte viability (LDH release)” value in data set [1] was “greater than or equal to 90%”. Besides, the DENV titer result with DENV is “did not result in a significant decrease”. The “keratinocyte viability (XTT)” value in data set [3] is on record as “greater than or equal to 90%”. The RSAD2 protein expression result in the data set on viperin (RSAD2) (setting [10]) was “significantly increased”; in the data set with viperin (RSAD2) (setting [11]), “enhanced”. In addition, the “concentration at which the antiviral effect is significant” value in data set [8] is listed as “greater than 25 µg/mL”. Further, in the data set with West Nile virus (WNV) [6] (setting [12]), the “viral load in the cell monolayers” value is “No significant difference”. Besides, the “effect on WNV replication in human primary keratinocytes” value in the data set on West Nile virus (WNV) [6] was “does not seem to have any effect; also recorded: not reduced”. In addition, in data set [7] (10 µg/mL peptide alone, p < 0.05 (Figure S1)), the “CXCL-8 mRNA expression, peptide alone” value is “notable exception”. The “pro-inflammatory effects of the peptide alone (mRNA of inflammatory markers)” value in data set [7] is on record as “no significant pro-inflammatory effects”.
For the substance poly(I:C), the “inflammatory response of NHEK” value in data set [9] is reported as “elicited an inflammatory response”.
